Structures can show the parent of a compound that is named as a salt.
experiment: Maximal solubility of coupling agents in DMF; details: calculated molarity in DMF

Molecule | Molarity
1-((dimethylimino)(morpholino)methyl)3-H-6-trifluoromethylbenzo[1,2,3]-triazolo-1-ium-3-olate hexafluorophosphate [6-CF3HDMB] | 1.02
1-((dimethylimino)(morpholino)methyl)3-H-6-chlorobenzo[1,2,3]triazolo-1-ium-3-olate hexafluorophosphate [6-Cl-HDMB] | 1.0

same assay, conditions: maximal solubility; mass of agent per volume of DMF

Molecule | Wt/ml
1-((dimethylimino)(morpholino)methyl)3-H-[1,2,3]triazolo[4,5-b]pyridine-1-3-olate hexafluorophosphate [HDMA] | 0.285
1-((dimethylimino)(morpholino)methyl)3-H-6-trifluoromethylbenzo[1,2,3]-triazolo-1-ium-3-olate hexafluorophosphate [6-CF3HDMB] | 0.475
1-((dimethylimino)(morpholino)methyl)3-H-6-chlorobenzo[1,2,3]triazolo-1-ium-3-olate hexafluorophosphate [6-Cl-HDMB] | 0.456

experiment: not given; details: not given

Molecule | melting point
O=c1ccccn1OC(N1CCOCC1)=[N+]1CCCC1 (as salt: phosphate) | 145 to 146 °C (dec.)
CN(C)C(n1n[n+]([O-])c2ccc(Cl)cc21)=[N+]1CCCC1 (as salt: phosphate) | 192 to 193 °C
C[N+](C)=C(ON=C(C#N)C#N)N1CCOCC1 (as salt: phosphate) [HDMODC, 1-[(1-(dicyanomethyleneaminooxy)-dimethylamino-morpholinomethylene)]methanaminium hexafluorophosphate] | 118 to 119 °C
CCOC(=O)C(C#N)=NOC(N(C)C)=[N+]1CCCC1 (as salt: phosphate) [HDmPyOCC, 1-[(1-(Cyano-2-ethoxy-2-oxoethylideneaminooxy)-dimethylamino-pyrrolodinomethylene)]methanaminium hexafluorophosphate] | 126 to 127 °C (dec.)
CCOC(=O)/C(C#N)=N/OC(N(C)C)N(C)C (as salt: phosphate) [HTOCC, O-[Cyano(ethoxycarbonyl)methylidene)amino]-1,1,3,3-tetramethyluronium Hexafluorophosphate] | 135 to 137 °C (dec.)
CN(C)C(O/N=C(\C#N)c1ccccn1)=[N+](C)C (as salt: phosphate) | 169 to 171 °C
CN(C)C(ON=C(C#N)C#N)=[N+]1CCCC1 (as salt: phosphate) [HDmPyODC, 1-[(1-(dicyanomethylideneaminooxy)-dimethylamino-pyrrolodinomethylene)]methanaminium hexafluorophosphate] | 146 to 147 °C (dec.)
CCOC(=O)/C(C#N)=N/OC(N1CCOCC1)=[N+]1CCCC1 (as salt: phosphate) [HMPyOCC, 1-((1-cyano-2-ethoxy-2-oxoethylideneaminooxy)(morpholino)methylene) pyrrolidinium hexafluorophosphate] | 171 to 172 °C
[O-][n+]1nn(C(N2CCCC2)N2CCOCC2)c2cccnc21 (centres unmarked) (as salt: phosphate) [HMPyA, 1-(morpholino(pyrrolidinium-1-ylidene)methyl)-1H-[1,2,3]triazolo[4,5-I]pyridine 3-oxide hexafluorophosphate] | 206 to 208 °C (dec.)

Reference: US8524898B2, “Proton acceptor iminium/carbocation-type coupling agents” (Luxembourg Bio Technologies Ltd., priority 2007, dated 2013)
